Measurements from patent US7635716B2, “Substituted cyclopentanes or cyclopentanones as therapeutic agents” (Allergan, Inc., priority 2005, dated 2009).

Legend:
[1] = biological target: T1, hEP2 (Homo sapiens, UniProt P43116); experiment: Competition binding, [3H]PGE2, HEK 293 cells stably expressing human EP2 receptors; set-up: expressed in transfected cells; host or cells: HEK 293 cells (membranes or whole cells); settings: Table 1, second part; read-out: hEP2 Ki
Experimental: Competition binding experiments were performed in a medium containing Hank's balanced salt solution, Hepes 20 mM, pH 7.3, membranes (˜60 μg protein) or 2×10^5 cells from HEK 293 cells stably expressing human EP2 receptors, [^3H]PGE2 (10 nM) and various concentrations of test compounds in a total volume of 300 μL. Reaction mixtures were incubated at 23° C. for 60 min, and were filtered over Whatman GF/B filters under vacuum. Filters were washed three times with 5 ml ice-cold buffer containing 50 mM Tris/HCl (pH 7.3). Non-specific binding was estimated in the presence of excess unlabeled PGE2 (10 μM). Binding data fitted to the binding model for a single class of binding sites, using nonlinear regression analysis. IC50 values thus obtained were converted to Ki using the equation of Ki=(IC50/(1+[L]/KD) where [L] represents PGE2 concentration (10 nM) and KD the dissociation constant for [^3H]PGE2 at human EP2 receptors (40 nM).
(§1) HEK-293 cells stably expressing the human or feline FP receptor, or EP1, EP2, or EP4 receptors were washed with TME buffer, scraped from the bottom of the flasks, and homogenized for 30 sec using a Brinkman PT 10/35 polytron. TME buffer was added to achieve a final 40 ml volume in the centrifuge tubes (the composition of TME is 100 mM TRIS base, 20 mM MgCl2, […]; 10N HCl is added to achieve a pH of 7.4).
(§2) The cell homogenate was centrifuged at 19000 r.p.m. for 20 min at 4° C. using a Beckman Ti-60 rotor. The resultant pellet was resuspended in TME buffer to give a final 1 mg/ml protein concentration, as determined by Biorad assay. Radioligand binding competition assays vs. [^3H—]17 phenyl PGF2. (5 nM) were performed in a 100 μl volume for 60 min. Binding reactions were started by adding plasma membrane fraction. The reaction was terminated by the addition of 4 ml ice-cold TRIS-HCl buffer and rapid filtration through glass fiber GF/B filters using a Brandel cell harvester. The filters were washed 3 times with ice-cold buffer and oven dried for one hour.
(§3) [^3H—] PGE2 (specific activity 180 Ci mmol) was used as the radioligand for EP receptors. [^3H] 17-phenyl PGF2α was employed for FP receptor binding studies. Binding studies employing EP1, EP2, EP4 and FP receptors were performed in duplicate in at least three separate experiments. A 200 μl assay volume was used. Incubations were for 60 min at 25° C. and were terminated by the addition of 4 ml of ice-cold 50 mM TRIS-HCl, followed by rapid filtration through Whatman GF/B filters and three additional 4 ml washes in a cell harvester (Brandel). Competition studies were performed using a final concentration of 5 nM [^3H]-PGE2, or 5 nM [^3H] 17-phenyl PGF2α and non-specific binding determined with 10^−5M of unlabeled PGE2, or 17-phenyl PGF2α, according to receptor subtype studied.

[2] = biological target: T1, hEP2; experiment: hEP2 cAMP functional assay; format: cell-based; settings: Table 1, second part
[3] = biological target: T2, hEP4 (Homo sapiens, UniProt P35408); experiment: Radioligand binding, [3H]PGE2, HEK-293 cells stably expressing EP4 receptors; settings: Table 1, second part; read-out: hEP4 Ki
T2 construct: expressed in transfected cells; host or cells: HEK-293 cells (plasma membrane fraction)
Experimental: as §1, §2
as §3, with “Binding studies employing EP1, EP2, EP4 and FP receptors were performed in duplicate in at least three separate experiments.” left out

[4] = biological target: T3, hEP2/Gqs5 (Homo sapiens, UniProt P43116); experiment: FLIPR calcium signal, HEK-293(EBNA) cells; format: cell-based; settings: Table 1, second part; read-out: hEP2 flipr EC50
T3 construct: expressed in transfected cells; host or cells: HEK-293(EBNA) cells
Experimental: (§4) HEK-293(EBNA) cells, stably expressing one type or subtype of recombinant human prostaglandin receptors (prostaglandin receptors expressed: hDP/Gqs5; hEP1; hEP2/Gqs5; hEP3A/Gqi5; hEP4/Gqs5; hFP; hIP; hTP), were cultured in 100 mm culture dishes in high-glucose DMEM medium containing 10% fetal bovine serum, 2 mM 1-glutamine, 250 μg/ml geneticin (G418) and 200 μg/ml hygromycin B as selection markers, and 100 units/ml penicillin G, 100 μg/ml streptomycin and 0.25 μg/ml amphotericin B.
(§5) Cells were seeded at a density of 5×10^4 cells per well in Biocoat® Poly-D-lysine-coated black-wall, clear-bottom 96-well plates (Becton-Dickinson) and allowed to attach overnight in an incubator at 37° C. Cells were then washed two times with HBSS-HEPES buffer (Hanks Balanced Salt Solution without bicarbonate and phenol red, 20 mM HEPES, pH 7.4) using a Denley Cellwash plate washer (Labsystems). After 45 minutes of dye-loading in the dark, using the calcium-sensitive dye Fluo-4 AM at a final concentration of 2 μM, plates were washed four times with HBSS-HEPES buffer to remove excess dye leaving 100 μl in each well. Plates were re-equilibrated to 37° C. for a few minutes.
(§6) Cells were excited with an Argon laser at 488 nm, and emission was measured through a 510-570 nm bandwidth emission filter (FLIPR™, Molecular Devices, Sunnyvale, Calif.). Drug solution was added in a 50 μl volume to each well to give the desired final concentration. The peak increase in fluorescence intensity was recorded for each well. On each plate, four wells each served as negative (HBSS-HEPES buffer) and positive controls (standard agonists: BW245C (hDP); PGE2 (hEP1; hEP2/Gqs5; hEP3A/Gqi5; hEP4/Gqs5); PGF2. (hFP); carbacyclin (hIP); U-46619 (hTP), depending on receptor). The peak fluorescence change in each drug-containing well was then expressed relative to the controls.
(§7) Compounds were tested in a high-throughput (HTS) or concentration-response (CoRe) format. In the HTS format, forty-four compounds per plate were examined in duplicates at a concentration of 10^−5 M. To generate concentration-response curves, four compounds per plate were tested in duplicates in a concentration range between 10^−5 and 10^−11 M. The duplicate values were averaged. In either, HTS or CoRe format each compound was tested on at least 3 separate plates using cells from different passages to give an n≧3.

[5] = biological target: T4, hIP (Homo sapiens, UniProt P43119); experiment: FLIPR calcium signal, HEK-293(EBNA) cells; format: cell-based; settings: Table 1, second part; quantity not given, values match functional data (EC50) of first part; read-out: Other Receptors hIP
T4 construct: expressed in transfected cells; host or cells: HEK-293(EBNA) cells
Experimental: as §4, §5, §6, §7

[6] = biological target: T5, hEP4/Gqs5 (Homo sapiens, UniProt P35408); experiment: FLIPR calcium signal, HEK-293(EBNA) cells; format: cell-based; settings: Table 1, second part; read-out: hEP4 flipr EC50
T5 construct: expressed in transfected cells; host or cells: HEK-293(EBNA) cells
Experimental: as §4, §5, §6, §7

T1 sequence (P43116 whole entry): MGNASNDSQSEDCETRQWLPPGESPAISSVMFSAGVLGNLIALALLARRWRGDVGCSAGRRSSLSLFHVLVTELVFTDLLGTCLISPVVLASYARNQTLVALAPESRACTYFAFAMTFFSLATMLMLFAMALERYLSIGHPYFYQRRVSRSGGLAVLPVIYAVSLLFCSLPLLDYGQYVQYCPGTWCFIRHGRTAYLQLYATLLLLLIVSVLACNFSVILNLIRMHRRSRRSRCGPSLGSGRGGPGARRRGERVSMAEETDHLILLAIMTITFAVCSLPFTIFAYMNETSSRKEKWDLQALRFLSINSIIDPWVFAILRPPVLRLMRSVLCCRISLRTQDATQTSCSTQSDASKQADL
T4 sequence (P43119 whole entry): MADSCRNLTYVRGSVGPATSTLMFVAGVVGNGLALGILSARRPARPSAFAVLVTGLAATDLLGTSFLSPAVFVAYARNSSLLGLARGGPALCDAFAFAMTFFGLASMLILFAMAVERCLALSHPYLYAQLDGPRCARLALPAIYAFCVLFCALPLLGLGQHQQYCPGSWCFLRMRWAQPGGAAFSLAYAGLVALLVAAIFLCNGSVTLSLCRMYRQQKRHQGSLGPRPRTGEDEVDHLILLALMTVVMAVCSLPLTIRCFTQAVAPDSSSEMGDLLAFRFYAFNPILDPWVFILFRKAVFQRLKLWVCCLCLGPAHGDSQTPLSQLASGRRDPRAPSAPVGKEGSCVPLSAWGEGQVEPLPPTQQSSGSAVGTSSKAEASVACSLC
T2 sequence (P35408 whole entry): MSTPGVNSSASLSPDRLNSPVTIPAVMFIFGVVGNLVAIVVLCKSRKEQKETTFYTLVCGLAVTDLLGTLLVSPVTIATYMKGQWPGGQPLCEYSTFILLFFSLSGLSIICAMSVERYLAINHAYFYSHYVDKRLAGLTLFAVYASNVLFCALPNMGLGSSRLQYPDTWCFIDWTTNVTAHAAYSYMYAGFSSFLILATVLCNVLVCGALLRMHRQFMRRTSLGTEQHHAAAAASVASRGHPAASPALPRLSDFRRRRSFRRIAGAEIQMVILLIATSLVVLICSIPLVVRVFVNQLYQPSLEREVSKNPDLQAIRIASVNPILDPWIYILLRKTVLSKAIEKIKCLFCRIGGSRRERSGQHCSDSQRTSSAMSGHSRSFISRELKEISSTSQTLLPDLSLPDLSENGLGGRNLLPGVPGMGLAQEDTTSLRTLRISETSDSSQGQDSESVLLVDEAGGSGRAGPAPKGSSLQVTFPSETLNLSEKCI
T5 sequence (P35408 whole entry): as above
T3 sequence (P43116 whole entry): as the sequence (P43116 whole entry) above

O=Cc1cccc(OC[C@@H]2[C@@H](C/C=C\CCCC(=O)O)[C@H](Cl)C[C@H]2O)c1 [Example 48, (Z)-7-[(1R,2S,3R,5R)-5-Chloro-2-(3-formyl-phenoxymethyl)-3-hydroxy-cyclopentyl]-hept-5-enoic acid]
Ki [1]: 291 nM
EC50 [2]: 41 nM
Ki [3]: 14700 nM
EC50 [4]: 192 nM
EC50 [5]: 2690 nM
EC50 [6]: > 10000 nM
